A word on the inhibition: it is the relative decrease from the control value, in per cent.

Holding throughout (test): In vitro competitive activity-based protein profiling (Table 2, % inhibition at 1 μM)
Common to all, as to assay type: biochemical

One assay concerns the target T1, ABHD6 (Mus musculus, UniProt Q8R2Y0).
T1 sequence (Q8R2Y0 1-336): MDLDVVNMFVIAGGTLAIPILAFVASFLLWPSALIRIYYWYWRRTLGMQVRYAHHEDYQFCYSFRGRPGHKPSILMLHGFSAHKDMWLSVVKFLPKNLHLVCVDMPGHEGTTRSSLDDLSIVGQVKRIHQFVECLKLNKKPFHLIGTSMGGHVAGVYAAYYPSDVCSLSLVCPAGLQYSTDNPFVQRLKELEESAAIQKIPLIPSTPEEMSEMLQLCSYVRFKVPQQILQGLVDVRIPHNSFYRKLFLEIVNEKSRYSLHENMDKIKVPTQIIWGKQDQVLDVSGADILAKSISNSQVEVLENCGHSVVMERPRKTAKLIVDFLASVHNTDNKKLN
As to conditions: read-out: % Inhibition at 1 μM ABHD6. Here is the method: (§1) After 30 min, FP—Rh (1.0 μL, 50 μM in DMSO) was added and the mixture was incubated for another 30 min at 37° C. Reactions were quenched with SDS loading buffer (50 μL-4×) and run on SDS-PAGE. Following gel imaging, serine hydrolase activity was determined by measuring fluorescent intensity of gel bands corresponding to MAGL, ABHD6 and FAAH using ImageJ 1.43 u software.
(§2) hMAGL was expressed in HEK293T cells according to previously reported methods (see Niphakis, Long, and Blankman, J. L., et al. (2007) Chem. Biol. 14:1347-1356). Cell lysates were diluted with mock proteomes for use in competitive ABPP experiments.

Another assay addresses T2, FAAH (Mus musculus, UniProt O08914).
T2 sequence (O08914 1-579): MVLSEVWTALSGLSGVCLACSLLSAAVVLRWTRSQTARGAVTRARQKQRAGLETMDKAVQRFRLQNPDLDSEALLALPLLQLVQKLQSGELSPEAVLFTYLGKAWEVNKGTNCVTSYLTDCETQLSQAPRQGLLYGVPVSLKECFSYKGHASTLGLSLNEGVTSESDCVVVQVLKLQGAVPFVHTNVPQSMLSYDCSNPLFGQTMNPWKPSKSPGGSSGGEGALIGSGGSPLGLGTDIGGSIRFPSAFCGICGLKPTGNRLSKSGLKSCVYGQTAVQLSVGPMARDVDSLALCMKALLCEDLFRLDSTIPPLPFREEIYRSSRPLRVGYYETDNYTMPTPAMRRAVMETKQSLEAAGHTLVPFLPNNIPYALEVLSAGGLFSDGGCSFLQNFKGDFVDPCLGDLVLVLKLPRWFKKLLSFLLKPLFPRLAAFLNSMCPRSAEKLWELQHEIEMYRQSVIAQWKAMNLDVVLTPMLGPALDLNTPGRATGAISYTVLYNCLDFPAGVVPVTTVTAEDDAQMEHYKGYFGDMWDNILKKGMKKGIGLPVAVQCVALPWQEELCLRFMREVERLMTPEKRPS
The note with it: read-out: % Inhibition at 1 μM FAAH. The protocol:
as §1, §2

The target in the next assay is T3, MAGL (Mus musculus, UniProt O35678).
T3 sequence (O35678 1-303): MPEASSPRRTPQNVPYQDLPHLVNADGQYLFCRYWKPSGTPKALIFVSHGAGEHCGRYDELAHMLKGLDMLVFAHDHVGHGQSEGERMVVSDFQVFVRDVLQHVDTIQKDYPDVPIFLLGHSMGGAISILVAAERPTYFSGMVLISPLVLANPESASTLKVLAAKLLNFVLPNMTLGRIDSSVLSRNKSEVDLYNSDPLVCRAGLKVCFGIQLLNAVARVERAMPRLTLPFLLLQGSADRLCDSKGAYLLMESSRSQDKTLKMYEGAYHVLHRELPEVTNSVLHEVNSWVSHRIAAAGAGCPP
The note with it: read-out: % Inhibition at 1 μM MAGL. Here is the method:
After 30 min, FP—Rh (1.0 μL, 50 μM in DMSO) was added and the mixture was incubated for another 30 min at 37° C. Reactions were quenched with SDS loading buffer (50 μL-4×) and run on SDS-PAGE.
Cell lysates were diluted with mock proteomes for use in competitive ABPP experiments.

Turning to `CC1COCCN1c1cc(F)ccc1CN1CC2CN(C(=O)ON3C(=O)CCC3=O)CC2C1` (centres unmarked) [Example 91, 2,5-Dioxopyrrolidin-1-yl 5-[[4-fluoro-2-(3-methylmorpholin-4-yl)phenyl]methyl]-octahydropyrrolo[3,4-c]pyrrole-2-carboxylate], the inhibition at 1 µM at ABHD6, at FAAH and on MAGL was < 25% in each case.

`O=C(ON1C(=O)CCC1=O)N1CC2CN(Cc3ccc(F)cc3N3CCOCC3)CC2C1` (centres unmarked) [Example 89, 2,5-Dioxopyrrolidin-1-yl 5-[[4-fluoro-2-(morpholin-4-yl)phenyl]methyl]-octahydropyrrolo[3,4-c]pyrrole-2-carboxylate]: the inhibition at 1 µM on ABHD6, on FAAH and on MAGL was < 25% each time.

With `O=C(OC(C(F)(F)F)C(F)(F)F)N1CC2CN(C(c3ccc(Cl)cc3)c3ccc(Cl)cc3)CC2C1` (centres unmarked) [Example 8, 1,1,1,3,3,3-Hexafluoropropan-2-yl 5-[bis(4-chlorophenyl)methyl]-octahydropyrrolo[3,4-c]pyrrole-2-carboxylate], the inhibition at 1 µM is 25 to 75% at ABHD6, < 25% at FAAH and 25 to 75% at MAGL.

In the case of `Cn1cc(CN2CC3CN(C(=O)ON4C(=O)CCC4=O)CC3C2)c(-c2ccccc2Cl)n1` (centres unmarked) [Example 115, 2,5-Dioxopyrrolidin-1-yl 5-[[3-(2-chlorophenyl)-1-methyl-1H-pyrazol-4-yl]methyl]-octahydropyrrolo[3,4-c]pyrrole-2-carboxylate], the inhibition at 1 µM on ABHD6 is < 25%; at FAAH, < 25%; at MAGL it was 25 to 75%.

In the case of `O=C(ON1C(=O)CCC1=O)N1CC2CN(Cc3ccc(Cl)cc3N3CCC4(CCNC4=O)CC3)CC2C1` (centres unmarked) [Example 112, 2,5-Dioxopyrrolidin-1-yl 5-[(4-chloro-2-[1-oxo-2,8-diazaspiro[4.5]decan-8-yl]phenyl)methyl]-octahydropyrrolo[3,4-c]pyrrole-2-carboxylate], the values for the inhibition at 1 µM on ABHD6, on FAAH and at MAGL were < 25%, < 25% and 25 to 75%, respectively.

On to `CC(=O)N1CCC(c2nn(C)cc2CN2CC3CN(C(=O)OC(C(F)(F)F)C(F)(F)F)CC3C2)CC1` (centres unmarked) [Example 52, 1,1,1,3,3,3-Hexafluoropropan-2-yl 5-[[3-(1-acetylpiperidin-4-yl)-1-methyl-1H-pyrazol-4-yl]methyl]-octahydropyrrolo[3,4-c]pyrrole-2-carboxylate], for which the figures for the inhibition at 1 µM at ABHD6, on FAAH and on MAGL were < 25%, < 25% and 25 to 75%, respectively.

On to `CC(C)c1cc(CN2CC3CN(C(=O)ON4C(=O)CCC4=O)CC3C2)n(C2CCOCC2)n1` (centres unmarked) [Example 124, 2,5-Dioxopyrrolidin-1-yl 5-[[1-(oxan-4-yl)-3-(propan-2-yl)-1H-pyrazol-5-yl]methyl]-octahydropyrrolo[3,4-c]pyrrole-2-carboxylate], for which the inhibition at 1 µM at ABHD6 was < 25%; at FAAH, < 25%; on MAGL, 25 to 75%.

`CC(C)n1cc(CN2CC3CN(C(=O)ON4C(=O)CCC4=O)CC3C2)c(-c2ccccc2)n1` (centres unmarked) [Example 117, 2,5-Dioxopyrrolidin-1-yl 5-[[3-phenyl-1-(propan-2-yl)-1H-pyrazol-4-yl]methyl]-octahydropyrrolo[3,4-c]pyrrole-2-carboxylate]: the figures for the inhibition at 1 µM at ABHD6, on FAAH and on MAGL were 25 to 75%, < 25% and 25 to 75%, respectively.

As for `Cc1c(CN2CC3CN(C(=O)ON4C(=O)CCC4=O)CC3C2)cccc1N1CCN(C)CC1` (centres unmarked) [Example 145], the inhibition at 1 µM at ABHD6, at FAAH and at MAGL was < 25% throughout.

As to `CC1COCCN1c1cc(Cl)ccc1CN1CC2CN(C(=O)ON3C(=O)CCC3=O)CC2C1` (centres unmarked) [Example 95, 2,5-Dioxopyrrolidin-1-yl 5-[[4-chloro-2-(3-methylmorpholin-4-yl)phenyl]methyl]-octahydropyrrolo[3,4-c]pyrrole-2-carboxylate], the inhibition at 1 µM on ABHD6 is < 25%; on FAAH it was < 25%; on MAGL, 25 to 75%.

Consider `O=C(ON1C(=O)CCC1=O)N1CC2CN(Cc3ccc(C(=O)N4CCOCC4)cc3Cl)CC2C1` (centres unmarked) [Example 163, 2,5-dioxopyrrolidin-1-yl 5-(2-chloro-4-(morpholine-4-carbonyl)benzyl)-hexahydropyrrolo[3,4-c]pyrrole-2(1H)-carboxylate], for which the inhibition at 1 µM at ABHD6, on FAAH and on MAGL was < 25% each time.

Consider `Cc1cccc(CN2CC3CN(C(=O)ON4C(=O)CCC4=O)CC3C2)c1N1CCN(C)CC1` (centres unmarked) [Example 138, 2,5-dioxopyrrolidin-1-yl 5-[[3-methyl-2-(4-methylpiperazin-1-yl)phenyl]methyl]-octahydropyrrolo[3,4-c]pyrrole-2-carboxylate], for which the inhibition at 1 µM on ABHD6, on FAAH and at MAGL was < 25% each time.

On to `O=C(ON1C(=O)CCC1=O)N1CC2CN(Cc3ccc(Cl)cc3N3CCC(C(=O)N4CCCC4)CC3)CC2C1` (centres unmarked) [Example 111, 2,5-Dioxopyrrolidin-1-yl 5-[(4-chloro-2-[4-[(pyrrolidin-1-yl)carbonyl]piperidin-1-yl]phenyl)methyl]-octahydropyrrolo[3,4-c]pyrrole-2-carboxylate], for which the inhibition at 1 µM on ABHD6 is < 25%; at FAAH, < 25%; at MAGL it was 25 to 75%.

As to `O=C(ON1C(=O)CCC1=O)N1CC2CN(Cc3ccc(C(=O)N4CCCC4)cc3Cl)CC2C1` (centres unmarked) [Example 164, 2,5-dioxopyrrolidin-1-yl 5-(2-chloro-4-(pyrrolidine-1-carbonyl)benzyl)-hexahydropyrrolo[3,4-c]pyrrole-2(1H)-carboxylate], the inhibition at 1 µM is 25 to 75% on ABHD6, < 25% on FAAH and 25 to 75% at MAGL.

`O=C(OC(C(F)(F)F)C(F)(F)F)N1CC2CN(Cc3ccc(F)cc3N3CCOCC3)CC2C1` (centres unmarked) [Example 14, 1,1,1,3,3,3-Hexafluoropropan-2-yl 5-[[4-fluoro-2-(morpholin-4-yl)phenyl]methyl]-octahydropyrrolo[3,4-c]pyrrole-2-carboxylate]: the inhibition at 1 µM on ABHD6 is < 25%; at FAAH, 25 to 75%; at MAGL it was > 75%.

Turning to `Cc1cc(CN2CC3CN(C(=O)ON4C(=O)CCC4=O)CC3C2)n(C(C)C)n1` (centres unmarked) [Example 121, 2,5-Dioxopyrrolidin-1-yl 5-[[3-methyl-1-(propan-2-yl)-1H-pyrazol-5-yl]methyl]-octahydropyrrolo[3,4-c]pyrrole-2-carboxylate], the inhibition at 1 µM at ABHD6, at FAAH and at MAGL was < 25% in each case.

For `O=C(ON1C(=O)CCC1=O)N1CC2CN(Cc3ccc(C(=O)N4CCCC4)cc3F)CC2C1` (centres unmarked) [Example 167, 2,5-dioxopyrrolidin-1-yl5-(2-fluoro-4-(pyrrolidine-1-carbonyl)benzyl)-hexahydropyrrolo[3,4-c]pyrrole-2(1H)-carboxylate], at ABHD6, the inhibition at 1 µM is < 25%.

As for `O=C(ON1C(=O)CCC1=O)N1CC2CN(Cc3ccc(C(=O)N4CCC4)cc3F)CC2C1` (centres unmarked) [Example 168, 2,5-dioxopyrrolidin-1-yl5-(4-(azetidine-1-carbonyl)-2-fluorobenzyl)-hexahydropyrrolo[3,4-c]pyrrole-2(1H)-carboxylate], the inhibition at 1 µM on ABHD6 is < 25%.

The values are drawn from patent US9828379B2 (priority 2013, dated 2017).
